Patent US9676771B2, “Compounds for inhibiting drug-resistant strains of HIV-1 integrase” (priority 2013, dated 2017)
Like-named read-outs stand apart in the source and are kept apart here.

Assays:
[1] = test system: HIV-1 constructs containing mutant IN G118R; experiment: microbe, parasite or virus in culture; type: cell-based; settings: for EC50: Human immunodeficiency virus 1
Experimental: (§1) Single-Round HIV-1 Infectivity Assay.
(§2) Human embryonyl kidney cell culture cell line 293 was acquired from the American type Culture Collection (ATCC).
(§3) […]. […] The virus-containing supernatants were then harvested, clarified by low-speed centrifugation, filtrated, and diluted for preparation in infection assays. […] After compound incorporation and activation in the cell, 100 μL of virus-stock diluted to achieve a maximum luciferase signal between 0.2 and 1.5 RLUs was added to each well and further incubated at 37° C. for 48 hrs. […] Activity was normalized to infectivity in the absence of target compounds. KaleidaGraph (Synergy Software, Reading, Pa.) was used to perform regression analysis on the data. EC50 values were determined from the fit model.
(§4) pNLNgoMIVR^−ΔEnv.LUC has been described previously (Zhao et al. 2008). The integrase codon reading frame was removed from pNLNgoMIVR^−ΔEnv LUC (between KpnI and SalI sites) and placed between the KpnI and SalI sites of pBluescript II KS+. Using that construct as the wild-type template, we prepared the following HIV-1 Integrase-resistant mutants via the QuikChange II XL (Stratagene, La Jolla, Calif.) site-directed mutagenesis protocol: H51Y, T66I, E92Q, G118R, Y143R, Q148H, Q148K, N155H, R263K, G140S+Q148H, G140A+Q148K, E138K+Q148K, and H51Y+R263K. The following sense with cognate antisense (not shown) oligonucleotides (Integrated DNA Technologies, Coralville, Iowa) were used in the mutagenesis: H51Y, 5′-[…]-3; T66I, 5′-[…]-3′; E92Q, 5′-[…]-3′; G118R, 5′-[…]-3′; E138K, 5′-[…]-3; G140A, 5′-[…]-3; G140S, 5′-[…]-3′; Y143R, 5′-[…]-3′; Q148H, 5′-[…]-3′; Q148K, 5′-[…]-3; N155H, 5′-[…]-3′; R263K 5′-[…]-3′. The double mutation G140S+Q148H was constructed by using the previously generated Q148H mutant and the appropriate oligonucleotide for the 2nd mutation, G140S. The double mutation G140A+Q148K was made by using the Q148K mutant and the appropriate oligonucleotide for the 2nd mutation, G140A. The double mutation E138K+Q148K was made by using the Q148K mutant and the appropriate oligonucleotide for the 2nd mutation, E138K. The double mutation H51Y+R263K was constructed by using the previously generated H51Y mutant and the appropriate oligonucleotides for the 2nd mutation, R263K. The DNA sequence of each construct was verified independently by DNA sequence determination. The mutant integrase coding sequences from pBluescript II KS+ were then subcloned into pNLNgoMIVR^−ΔEnv LUC (between the KpnI and SalI sites) to produce the full-length mutant HIV-1 Integrase constructs. These DNA sequences were additionally checked independently by DNA sequence determination.

[2] = test system: HIV-1 constructs containing wild-type IN; experiment: microbe, parasite or virus in culture; type: cell-based
HIV-1 integrase = HIV-1 integrase (Human immunodeficiency virus type 1 group M subtype B, UniProt P12497); experiment: biochemical; type: biochemical
Method in brief: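 Compounds or DMSO added to 20 nM DNA and 400 nM integrase in 50 mM MOPS pH 7.2, 7.5 mM MgCl2, 14 mM 2-mercaptoethanol; 2 h at 37° C, quenched with formamide/SDS loading buffer. Products resolved on gels, imaged and quantified by densitometry.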

[3] = test system: HIV-1 constructs containing mutant IN G140S-Q148H; experiment: microbe, parasite or virus in culture; type: cell-based; settings: for EC50: Human immunodeficiency virus 1
Method in brief: (§5)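 Single-round infectivity assay using luciferase-reporter pNLNgoMIVR−ΔEnv.LUC virus carrying site-directed integrase mutants, produced in 293 cells. Activity normalized to infectivity without compound; EC50 from regression fit.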

[4] = test system: HIV-1 constructs containing mutant IN N155H; experiment: microbe, parasite or virus in culture; type: cell-based; settings: for EC50: Human immunodeficiency virus 1
Method in brief: as §5

[5] = test system: HIV-1 constructs containing mutant IN Y143R; experiment: microbe, parasite or virus in culture; type: cell-based; settings: for EC50: Human immunodeficiency virus 1
Method in brief: as §5

[6] = test system: HIV-1 constructs containing mutant IN R263K; experiment: Single-round HIV-1 infectivity assay, IN mutant R263K; type: cell-based; settings: Human immunodeficiency virus 1
Experimental: as §1, §2, §3, §4

[7] = Table 8, read-out: EC50 (nM, IN mutants) G118R
[8] = Human immunodeficiency virus 1, read-out: EC50 (nM), Table 9, WT, normal 5% serum
[9] = Human immunodeficiency virus 1, Table 8, WT IN, read-out: EC50 (nM, WT)
[10] = Table 7, 3′-processing, read-out: IC50 (μM) 3′-P
[11] = Table 7, strand transfer, read-out: IC50 (μM) ST
[12] = Table 8, read-out: EC50 (nM, IN mutants) G140S/Q148H
[13] = Table 8, read-out: EC50 (nM, IN mutants) N155H
[14] = Table 8, read-out: EC50 (nM, IN mutants) Y143R
[15] = Table 8, read-out: EC50 (nM, IN mutants) R263K
[16] = Table 6, read-out: EC50 (nM, IN Mutants) G118R
[17] = Human immunodeficiency virus 1, Table 3, WT IN, read-out: EC50 (nM, WT)
[18] = Table 4, 3′-processing, read-out: IC50 (3^+-Processing)
[19] = Table 4, strand transfer, read-out: IC50 (Strand Transfer)
[20] = Table 3, G140S-Q148H double mutant, read-out: EC50 (nM, IN Mutants) SH
[21] = Table 3, read-out: EC50 (nM, IN Mutants) N155H
[22] = Table 3, read-out: EC50 (nM, IN Mutants) Y143R
[23] = Table 6, read-out: EC50 (nM, IN Mutants) R263K

| Compound | EC50 [1, 7] | EC50 [2, 8] | EC50 [2, 9] | IC50 (HIV-1 integrase; [10]) | IC50 (HIV-1 integrase; [11]) | EC50 [3, 12] | EC50 [4, 13] | EC50 [5, 14] | EC50 [6, 15] | further results |
| --- | --- | --- | --- | --- | --- | --- | --- | --- | --- | --- |
| Nc1c(C(=O)NCc2ccc(F)cc2F)c(=O)n(O)c2ncc(CCCCCO)cc12 [XZ419, 4-Amino-N-(2,4-difluorobenzyl)-1-hydroxy-6-(5-hydroxypentyl)-2-oxo-1,2-dihydro-1,8-naphthyridine-3-carboxamide] | 5.3 nM | 1.3 ± 0.2 nM | 1.3 nM | 8.2 ± 1.2 µM | 0.0027 ± 0.0004 µM | 6.9 nM | 2.4 nM | 3 nM | 2.6 nM |  |
| CC(=O)OCCCc1cnc2c(c1)c(N)c(C(=O)NCc1ccc(F)cc1F)c(=O)n2O [XZ424, 3-(5-Amino-6-((2,4-difluorobenzyl)carbamoyl)-8-hydroxy-7-oxo-7,8-dihydro-1,8-naphthyridin-3-yl)propyl acetate] | 5.9 nM |  | 1.4 nM | 14.3 ± 2.1 µM | 0.0102 ± 0.0016 µM | 13 nM | 5.4 nM | 2.93 nM | 1.75 nM |  |
| Nc1c(C(=O)NCc2ccc(F)cc2F)c(=O)n(O)c2ncc(CCCCCCCCO)cc12 [XZ433, 4-Amino-N-(2,4-difluorobenzyl)-1-hydroxy-6-(8-hydroxyoctyl)-2-oxo-1,2-dihydro-1,8-naphthyridine-3-carboxamide] | 11.1 nM |  | 3.7 nM | 32 ± 6 µM | 0.0054 ± 0.0008 µM | 7.7 nM | 6.5 nM | 3.2 nM | 3.8 nM |  |
| COC(=O)CNc1c(C(=O)NCc2ccc(F)cc2F)c(=O)n(O)c2ncccc12 [XZ379, Methyl 2-((3-((2,4-difluorobenzyl)carbamoyl)-1-hydroxy-2-oxo-1,2-dihydro-1,8-naphthyridin-4-yl)amino)acetate] |  | 3.8 ± 1.2 nM |  |  |  |  |  |  |  | EC50 [1, 16]: 41.3 ± 18 nM; EC50 [2, 17]: 3.8 ± 1.2 nM; Si (selectivity index) ([2]; Table 3, ratio of CC50 to EC50): >25,000; IC50 (HIV-1 integrase; [18]): 0.71 ± 0.1 µM; IC50 (HIV-1 integrase; [19]): 0.021 ± 0.011 µM; EC50 [3, 20]: 35.5 ± 15.9 nM; EC50 [4, 21]: 19 ± 6.9 nM; EC50 [5, 22]: 4.6 ± 2.2 nM; EC50 [6, 23]: 25.9 ± 8.2 nM |
| O=C(NCc1ccc(F)cc1F)c1c(O)c2cccnc2n(O)c1=O [XZ351, N-(2,4-difluorobenzyl)-1,4-dihydroxy-2-oxo-1,2-dihydro-1,8-naphthyridine-3-carboxamide] |  |  |  |  |  |  |  |  |  | Integrase Mutants G118R, fold-change in EC50 relative to WT [1]: 6 x; EC50 [1, 16]: 107 ± 40 nM; SI [2]: 22,767; Si (selectivity index) [2]: 22,032; EC50 ([2]; Human immunodeficiency virus 1, Table 2, cells infected with lentiviral vector harboring WT IN, read-out: EC50): 6 nM; EC50 [2, 17]: 6.2 ± 2.9 nM; IC50 (HIV-1 integrase; Table 1, 3′-processing, read-out: IC50 Values 3′-Processing): 1.2 ± 0.2 µM; IC50 (HIV-1 integrase; Table 1, strand transfer, read-out: IC50 Values Strand transfer): 0.055 ± 0.008 µM; Integrase Mutants SH (G140S-Q148H), fold-change in EC50 relative to WT [3]: 50 x; EC50 [3, 20]: 308 ± 125 nM; Integrase Mutants N155H, fold-change in EC50 relative to WT [4]: 5 x; EC50 [4, 21]: 30.5 ± 7.76 nM; Integrase Mutants Y143R, fold-change in EC50 relative to WT [5]: 2 x; EC50 [5, 22]: 11.3 ± 1.93 nM; EC50 [6, 23]: 35.9 ± 7.6 nM |
| Nc1c(C(=O)NCc2ccc(F)cc2F)c(=O)n(O)c2ncc(CCCCCCO)cc12 [XZ426, 4-Amino-N-(2,4-difluorobenzyl)-1-hydroxy-6-(6-hydroxyhexyl)-2-oxo-1,2-dihydro-1,8-naphthyridine-3-carboxamide] | 6.4 nM | 2.3 ± 0.6 nM | 2.33 nM | 19 ± 1 µM | 0.00059 ± 0.00011 µM | 9.4 nM | 2.7 nM | 2.1 nM | 8.4 nM |  |
| COC(=O)CCc1cnc2c(c1)c(NCCO)c(C(=O)NCc1ccc(F)cc1F)c(=O)n2O [XZ438, Methyl 3-(6-((2,4-difluorobenzyl)carbamoyl)-8-hydroxy-5-((2-hydroxyethyl)amino)-7-oxo-7,8-dihydro-1,8-naphthyridin-3-yl)propanoate] | 4.8 nM |  | 4.1 ± 1 nM | 3.2 ± 0.3 µM | 0.0031 ± 0.0003 µM | 15.9 nM | 3.9 nM | 3.8 nM | 6.5 nM |  |
| CC(=O)OCCNc1c(C(=O)NCc2ccc(F)cc2F)c(=O)n(O)c2ncccc12 [XZ402, 2-((3-((2,4-difluorobenzyl)carbamoyl)-1-hydroxy-2-oxo-1,2-dihydro-1,8-naphthyridin-4-yl)amino)ethyl acetate] |  | 4.5 ± 1.5 nM |  |  |  |  |  |  |  | EC50 [1, 16]: 43.5 ± 11.2 nM; EC50 [2, 17]: 4.5 ± 1.5 nM; Si (selectivity index) ([2]; Table 3, ratio of CC50 to EC50): >25,000; IC50 (HIV-1 integrase; [18]): 5.3 ± 0.5 µM; IC50 (HIV-1 integrase; [19]): 0.027 ± 0.006 µM; EC50 [3, 20]: 35.1 ± 13.6 nM; EC50 [4, 21]: 3.1 ± 0.3 nM; EC50 [5, 22]: 4.8 ± 2.9 nM; EC50 [6, 23]: 16 ± 5.1 nM |
| Nc1c(C(=O)NCc2ccc(F)cc2F)c(=O)n(O)c2ncc(CCCO)cc12 [XZ423, 4-Amino-N-(2,4-difluorobenzyl)-1-hydroxy-6-(3-hydroxypropyl)-2-oxo-1,2-dihydro-1,8-naphthyridine-3-carboxamide] | 10 nM |  | 3.1 nM | 4.3 ± 0.6 µM | 0.0113 ± 0.0027 µM | 13.4 nM | 8.5 nM | 2.8 nM | 2.5 nM |  |
| COC(=O)CCc1cnc2c(c1)c(N)c(C(=O)NCc1ccc(F)cc1F)c(=O)n2O [XZ434, Methyl 3-(5-amino-6-((2,4-difluorobenzyl)carbamoyl)-8-hydroxy-7-oxo-7,8-dihydro-1,8-naphthyridin-3-yl)propanoate] | 4.8 nM | 0.7 ± 0.2 nM | 0.67 nM | 2.9 ± 0.6 µM | 0.0018 ± 0.0002 µM | 5.3 nM | 2.3 nM | 0.67 nM | 0.5 nM |  |
| C[C@@H]1CCO[C@H]2Cn3cc(C(=O)NCc4ccc(F)cc4F)c(=O)c(O)c3C(=O)N12 [DTG, dolutegravir, reference compound] | 13 ± 5 nM |  | 1.6 nM |  |  | 5.8 nM | 3.6 nM | 4.3 nM | 11.3 nM | IC50 (HIV-1 integrase; Table 10, strand transfer, read-out: IC50 (nM, ST)): 0.0124 ± 0.0026 µM |
| O=C(NCc1ccc(F)cc1F)c1c(NCCO)c2cc(CCCCCO)cnc2n(O)c1=O [XZ437, N-(2,4-Difluorobenzyl)-1-hydroxy-4-((2-hydroxyethyl)amino)-6-(5-hydroxypentyl)-2-oxo-1,2-dihydro-1,8-naphthyridine-3-carboxamide] | 23.9 nM |  | 13 nM | 4 ± 0.5 µM | 0.0025 ± 0.0002 µM | 15.5 nM | 15 nM | 11.6 nM | 18.1 nM |  |
